Measured values taken from the supplement of paper PMC10307832.

How the values were obtained:
Experiment in all cases: relative viability (nuclei count vs DMSO), 5 days (fraction); higher = more cells survive
[1] = compound: C1CCC(CC1)N(CCNCCC2=C3C(=C(C=C2)O)NC(=O)CO3)C(=O)CCNCCC4=CC(=C(C=C4)Cl)Cl [AZ505] + Cc1cc(Nc2cc(N3CCN(C)CC3)nc(Sc3ccc(NC(=O)C4CC4)cc3)n2)n[nH]1 [Tozasertib] (partner 0.1 µM)
Outline: (§1)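 Lung cancer cell lines in 1536-well plates were dosed by pin tool the day after seeding, either with one drug alone or with a fixed anchor-drug dose plus five library-drug doses (not always all listed) in √10 steps. After 5 days, cells were fixed and their nuclei stained in one step (final 0.05% Triton X-100, 1% formaldehyde, 1 ug/ml Hoechst), then counted on 4× images. Relative viability is the nuclei count in treated wells divided by that in vehicle wells. Values are medians of duplicate plates.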

[2] = compound: Cn1c(=O)n(-c2ccc(C(C)(C)C#N)cc2)c2c3cc(-c4cnc5ccccc5c4)ccc3ncc21 [Dactolisib] + CC(=O)c1c(C)c2cnc(Nc3ccc(N4CCNCC4)cn3)nc2n(C2CCCC2)c1=O [Palbociclib] (partner 0.5 µM)
Outline: as §1

[3] = compound: Cn1c(=O)n(-c2ccc(C(C)(C)C#N)cc2)c2c3cc(-c4cnc5ccccc5c4)ccc3ncc21 [Dactolisib] + CC1(C)CCC(c2ccc(Cl)cc2)=C(CN2CCN(c3ccc(C(=O)NS(=O)(=O)c4ccc(N[C@H](CCN5CCOCC5)CSc5ccccc5)c(S(=O)(=O)C(F)(F)F)c4)cc3)CC2)C1 [Navitoclax] (partner 0.5 µM)
Outline: as §1

[4] = compound: Cn1c(=O)n(-c2ccc(C(C)(C)C#N)cc2)c2c3cc(-c4cnc5ccccc5c4)ccc3ncc21 [Dactolisib] + C[C@]1(O)C[C@@H](c2nc(-c3ccc4ccc(-c5ccccc5)nc4c3)c3c(N)nccn32)C1 [Linsitinib] (partner 1 µM)
Outline: as §1

Row | Cell Line | relative viability ([1]; first compound 0.08 µM) | relative viability ([1]; first compound 0.253 µM) | relative viability ([1]; first compound 0.8 µM) | relative viability ([1]; first compound 2.53 µM) | relative viability ([1]; first compound 8 µM) | relative viability ([2]; first compound 0.002 µM) | relative viability ([2]; first compound 0.006325 µM) | relative viability ([2]; first compound 0.02 µM) | relative viability ([2]; first compound 0.06325 µM) | relative viability ([2]; first compound 0.2 µM) | relative viability ([3]; first compound 0.002 µM) | relative viability ([3]; first compound 0.006325 µM) | relative viability ([3]; first compound 0.02 µM) | relative viability ([3]; first compound 0.06325 µM) | relative viability ([3]; first compound 0.2 µM) | relative viability ([4]; first compound 0.002 µM) | relative viability ([4]; first compound 0.006325 µM) | relative viability ([4]; first compound 0.02 µM) | relative viability ([4]; first compound 0.06325 µM) | relative viability ([4]; first compound 0.2 µM)
1 | HCC-366 | 0.128 | 0.113 | 0.152 | 0.132 | 0.0879 | 0.402 | 0.349 | 0.232 | 0.102 | 0.0378 | 1 | 0.961 | 1.07 | 0.67 | 0.498 | 0.561 | 0.453 | 0.487 | 0.185 | 0.0961
2 | BEN | 0.443 | 0.545 | 0.458 | 0.504 | 0.426 | 0.479 | 0.477 | 0.473 | 0.458 | 0.426 | 0.114 | 0.0698 | 0.0623 | 0.0651 | 0.0432 | 0.888 | 0.852 | 0.647 | 0.446 | 0.297
3 | NCI-H23 | 0.388 |  | 0.392 | 0.402 | 0.327 | 0.464 | 0.383 | 0.37 | 0.189 | 0.191 | 0.934 | 0.842 | 0.829 | 0.412 | 0.346 | 0.553 | 0.598 | 0.368 | 0.243 | 0.287
4 | NCI-H1395 | 0.781 | 0.823 | 0.625 | 0.695 | 0.767 | 0.558 | 0.589 | 0.556 | 0.452 | 0.419 | 0.834 | 1.03 | 0.999 | 0.821 | 0.631 | 0.91 | 0.844 | 0.998 | 0.653 | 0.834
5 | 201T | 0.896 | 1.08 | 0.905 | 0.943 | 0.875 | 0.363 | 0.356 | 0.334 | 0.279 | 0.267 | 1.18 | 1.22 | 1.14 | 1.17 | 0.943 | 1.03 | 1.08 | 0.979 | 0.862 | 0.73
6 | NCI-H460 | 0.481 | 0.0927 | 0.551 | 0.204 | 0.299 | 0.0965 | 0.111 | 0.13 | 0.0706 | 0.0375 | 1.21 | 1.02 | 1.16 | 0.169 | 0.0342 | 0.933 | 0.654 | 0.434 | 0.0937 | 0.0501
7 | HCC-15 | 0.363 | 0.299 | 0.36 | 0.344 | 0.322 | 0.778 | 0.723 | 0.715 | 0.471 | 0.28 | 0.767 | 0.646 | 0.673 | 0.475 | 0.322 | 0.976 | 0.864 | 0.873 | 0.441 | 0.367
8 | NCI-H441 | 0.564 | 0.546 | 0.625 | 0.534 | 0.589 | 0.27 | 0.206 | 0.194 | 0.176 | 0.133 | 0.851 | 0.416 | 0.577 | 0.237 | 0.303 | 0.594 | 0.592 | 0.435 | 0.343 | 0.286
9 | EPLC-272H |  | 0.392 | 0.282 | 0.316 | 0.25 | 0.331 | 0.299 | 0.341 | 0.317 | 0.287 | 1.31 | 1.01 | 0.937 | 0.592 | 0.365 | 1.16 | 1.09 | 0.969 | 0.575 | 0.491
